Data published in PubChem BioAssay AID651630 (Sanford-Burnham Center for Chemical Genomics, 2012).
The source made the active and inactive calls.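 Rule for the calls: active = lipid-stain IC50 at or below a set limit, with nuclear-stain toxicity IC50 at least five times higher; inactive = the rest.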

Experiments:
DAPI = assay: triacylglycerol accumulation inhibitor potency, dose response, cell-based, panel, Nile Red and DAPI fluorescence, H9c2 (AID 651630); settings: H9c2 cells, DAPI nuclear fluorescence (cytotoxicity counter-readout), oleic acid;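 note: cells exposed to compound overnight before fixation and staining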
TAG = assay: as above; settings: H9c2 cells, Nile Red TAG fluorescence, oleic acid

Compound: C=CCn1c(SCc2c(C)noc2C)nc2sc3c(c2c1=O)CCC(C)C3 (stereo not drawn)
- IC50 cytotoxicity (DAPI nuclear signal decrease) (DAPI; mean of runs): > 25 µM (inactive)
- IC50 cytotoxicity (DAPI nuclear signal decrease) (DAPI; run 1): > 25 µM
- IC50 cytotoxicity (DAPI nuclear signal decrease) (DAPI; run 2): > 25 µM
- IC50 (TAG; mean of runs): > 25 µM (inactive)
- IC50 (TAG; run 1): > 25 µM
- IC50 (TAG; run 2): > 25 µM

Compound: CCN1CCN(Cc2ccc(NC(=O)c3cc(NC(=O)c4cncc(-c5cccs5)c4)cc(OC)c3)cc2C(F)(F)F)CC1
- IC50 cytotoxicity (DAPI nuclear signal decrease) (DAPI; mean of runs): > 25 µM (inactive)
- IC50 cytotoxicity (DAPI nuclear signal decrease) (DAPI; run 1): > 25 µM
- IC50 cytotoxicity (DAPI nuclear signal decrease) (DAPI; run 2): > 25 µM
- IC50 (TAG; mean of runs): 10.5 µM
- IC50 (TAG; run 1): 12.4 µM
- IC50 (TAG; run 2): 8.55 µM

Compound: Cc1ccc2oc(NC3=NC4(CCCC4)C4=C(CCCC4=O)N3)nc2c1
- IC50 cytotoxicity (DAPI nuclear signal decrease) (DAPI; mean of runs): > 25 µM (inactive)
- IC50 cytotoxicity (DAPI nuclear signal decrease) (DAPI; run 1): > 25 µM
- IC50 cytotoxicity (DAPI nuclear signal decrease) (DAPI; run 2): > 25 µM
- IC50 (TAG; mean of runs): 7.66 µM
- IC50 (TAG; run 1): 8.73 µM
- IC50 (TAG; run 2): 6.6 µM

Compound: COc1cc([C@@H]2c3cc4c(cc3[C@H](O)[C@H]3COC(=O)[C@H]23)OCO4)cc(OC)c1OC
- IC50 cytotoxicity (DAPI nuclear signal decrease) (DAPI; mean of runs): > 25 µM (inactive)
- IC50 cytotoxicity (DAPI nuclear signal decrease) (DAPI; run 1): > 25 µM
- IC50 cytotoxicity (DAPI nuclear signal decrease) (DAPI; run 2): > 25 µM
- IC50 (TAG; mean of runs): > 25 µM (inactive)
- IC50 (TAG; run 1): > 25 µM
- IC50 (TAG; run 2): > 25 µM

Compound: CCCCCc1ccc(-c2cn(Cc3ccc(C(=O)c4ccccc4)cc3)nn2)cc1
- IC50 cytotoxicity (DAPI nuclear signal decrease) (DAPI; mean of runs): > 25 µM (inactive)
- IC50 cytotoxicity (DAPI nuclear signal decrease) (DAPI; run 1): > 25 µM
- IC50 cytotoxicity (DAPI nuclear signal decrease) (DAPI; run 2): > 25 µM
- IC50 (TAG; run 1): 17.9 µM
- IC50 (TAG; run 2): > 25 µM

Compound: COc1cc(/C=C2/NC(=O)N(Cc3ccccc3F)C2=O)ccc1O
- IC50 cytotoxicity (DAPI nuclear signal decrease) (DAPI; mean of runs): > 25 µM (inactive)
- IC50 cytotoxicity (DAPI nuclear signal decrease) (DAPI; run 1): > 25 µM
- IC50 cytotoxicity (DAPI nuclear signal decrease) (DAPI; run 2): > 25 µM
- IC50 (TAG; mean of runs): > 25 µM (inactive)
- IC50 (TAG; run 1): > 25 µM
- IC50 (TAG; run 2): > 25 µM

Compound: COCCNc1nc(NCc2ccc(NC(C)=O)cc2)c2sc(-c3ccccc3)cc2n1
- IC50 cytotoxicity (DAPI nuclear signal decrease) (DAPI; run 1): 19.1 µM
- IC50 cytotoxicity (DAPI nuclear signal decrease) (DAPI; run 2): > 25 µM
- IC50 (TAG; mean of runs): > 25 µM (inactive)
- IC50 (TAG; run 1): > 25 µM
- IC50 (TAG; run 2): > 25 µM

Compound: COc1ccc(-c2cnnc(N/N=C/c3ccc(-c4ccc([N+](=O)[O-])cc4)o3)n2)cc1
- IC50 cytotoxicity (DAPI nuclear signal decrease) (DAPI; mean of runs): > 25 µM (inactive)
- IC50 cytotoxicity (DAPI nuclear signal decrease) (DAPI; run 1): > 25 µM
- IC50 cytotoxicity (DAPI nuclear signal decrease) (DAPI; run 2): > 25 µM
- IC50 (TAG; mean of runs): 11 µM
- IC50 (TAG; run 1): 11.6 µM
- IC50 (TAG; run 2): 10.4 µM

Compound: CC(C)C[C@H]1C(=O)N2CCC[C@H]2[C@]2(O)O[C@](NC(=O)C3C=C4c5cccc6[nH]c(Br)c(c56)C[C@H]4N(C)C3)(C(C)C)C(=O)N12 (stereo partly drawn)
- IC50 cytotoxicity (DAPI nuclear signal decrease) (DAPI; mean of runs): > 25 µM (inactive)
- IC50 cytotoxicity (DAPI nuclear signal decrease) (DAPI; run 1): > 25 µM
- IC50 cytotoxicity (DAPI nuclear signal decrease) (DAPI; run 2): > 25 µM
- IC50 (TAG; mean of runs): 6.4 µM
- IC50 (TAG; run 1): 5.42 µM
- IC50 (TAG; run 2): 7.37 µM

Compound: COc1cccc(Cn2c3ccc(NC(=O)CCc4ccc(F)cc4)cc3c(=O)n2C)c1
- IC50 cytotoxicity (DAPI nuclear signal decrease) (DAPI; mean of runs): > 25 µM (inactive)
- IC50 cytotoxicity (DAPI nuclear signal decrease) (DAPI; run 1): > 25 µM
- IC50 cytotoxicity (DAPI nuclear signal decrease) (DAPI; run 2): > 25 µM
- IC50 (TAG; run 1): 20.9 µM
- IC50 (TAG; run 2): > 25 µM

Compound: Cc1ccccc1NC(=O)CSc1nc(Nc2ccccc2)nc(N2CCOCC2)n1
- IC50 cytotoxicity (DAPI nuclear signal decrease) (DAPI; mean of runs): > 25 µM (inactive)
- IC50 cytotoxicity (DAPI nuclear signal decrease) (DAPI; run 1): > 25 µM
- IC50 cytotoxicity (DAPI nuclear signal decrease) (DAPI; run 2): > 25 µM
- IC50 (TAG; mean of runs): 12.9 µM
- IC50 (TAG; run 1): 15.7 µM
- IC50 (TAG; run 2): 10 µM

Compound: COc1ccc(C(=O)Nc2ccc(Cl)cc2C(=O)NCc2ccco2)cc1
- IC50 cytotoxicity (DAPI nuclear signal decrease) (DAPI; mean of runs): > 25 µM (inactive)
- IC50 cytotoxicity (DAPI nuclear signal decrease) (DAPI; run 1): > 25 µM
- IC50 cytotoxicity (DAPI nuclear signal decrease) (DAPI; run 2): > 25 µM
- IC50 (TAG; mean of runs): 16.9 µM (inactive)
- IC50 (TAG; run 1): 16.2 µM
- IC50 (TAG; run 2): 17.7 µM

Compound: CC1(c2ccccc2)O[C@@H]2C[C@H]3[C@@H]4CCC5=CC(=O)C=C[C@]5(C)[C@@]4(F)[C@@H](O)C[C@]3(C)[C@]2(C(=O)CO)O1 (stereo partly drawn)
- IC50 cytotoxicity (DAPI nuclear signal decrease) (DAPI; mean of runs): > 25 µM (inactive)
- IC50 cytotoxicity (DAPI nuclear signal decrease) (DAPI; run 1): > 25 µM
- IC50 cytotoxicity (DAPI nuclear signal decrease) (DAPI; run 2): > 25 µM
- IC50 (TAG; mean of runs): 13.9 µM
- IC50 (TAG; run 1): 13 µM
- IC50 (TAG; run 2): 14.7 µM

Compound: COc1cc(-c2nnc3n2N=C(c2ccccc2)CS3)cc(OC)c1OC
- IC50 cytotoxicity (DAPI nuclear signal decrease) (DAPI; mean of runs): > 25 µM (inactive)
- IC50 cytotoxicity (DAPI nuclear signal decrease) (DAPI; run 1): > 25 µM
- IC50 cytotoxicity (DAPI nuclear signal decrease) (DAPI; run 2): > 25 µM
- IC50 (TAG; mean of runs): 13.4 µM
- IC50 (TAG; run 1): 14.9 µM
- IC50 (TAG; run 2): 12 µM

Compound: COc1ccccc1NC(=O)Nc1nc(C(N)Cc2ccc(C(F)(F)F)cc2)cs1 (stereo not drawn)
- IC50 cytotoxicity (DAPI nuclear signal decrease) (DAPI; mean of runs): > 25 µM (inactive)
- IC50 cytotoxicity (DAPI nuclear signal decrease) (DAPI; run 1): > 25 µM
- IC50 cytotoxicity (DAPI nuclear signal decrease) (DAPI; run 2): > 25 µM
- IC50 (TAG; run 1): 16.1 µM
- IC50 (TAG; run 2): > 25 µM

Compound: CC(C)C[C@H]1CNC(=S)N1CC1CCCN1C[C@H](CC(C)C)N1C[C@H](CC(C)C)N(CCc2ccccc2)C1=S (stereo partly drawn)
- IC50 cytotoxicity (DAPI nuclear signal decrease) (DAPI; mean of runs): > 25 µM (inactive)
- IC50 cytotoxicity (DAPI nuclear signal decrease) (DAPI; run 1): > 25 µM
- IC50 cytotoxicity (DAPI nuclear signal decrease) (DAPI; run 2): > 25 µM
- IC50 (TAG; mean of runs): 14.4 µM
- IC50 (TAG; run 1): 15.3 µM
- IC50 (TAG; run 2): 13.4 µM

Compound: Nc1c(C(=O)NCc2ccccc2)sc2nc(N3CCOCC3)c3c(c12)CCCC3
- IC50 cytotoxicity (DAPI nuclear signal decrease) (DAPI; mean of runs): > 25 µM (inactive)
- IC50 cytotoxicity (DAPI nuclear signal decrease) (DAPI; run 1): > 25 µM
- IC50 cytotoxicity (DAPI nuclear signal decrease) (DAPI; run 2): > 25 µM
- IC50 (TAG; mean of runs): > 25 µM (inactive)
- IC50 (TAG; run 1): > 25 µM
- IC50 (TAG; run 2): > 25 µM

Compound: Cc1ccc(CN(C)C(=O)CN2C(=O)NC3(CCCc4ccccc43)C2=O)c(C)c1 (stereo not drawn)
- IC50 cytotoxicity (DAPI nuclear signal decrease) (DAPI; mean of runs): > 25 µM (inactive)
- IC50 cytotoxicity (DAPI nuclear signal decrease) (DAPI; run 1): > 25 µM
- IC50 cytotoxicity (DAPI nuclear signal decrease) (DAPI; run 2): > 25 µM
- IC50 (TAG; run 1): 21.7 µM
- IC50 (TAG; run 2): > 25 µM

Compound: Cc1ccsc1-c1nc(C(N)=O)c2[nH]c(=O)n(-c3ccc(Cl)cc3)c2n1
- IC50 cytotoxicity (DAPI nuclear signal decrease) (DAPI; mean of runs): > 25 µM (inactive)
- IC50 cytotoxicity (DAPI nuclear signal decrease) (DAPI; run 1): > 25 µM
- IC50 cytotoxicity (DAPI nuclear signal decrease) (DAPI; run 2): > 25 µM
- IC50 (TAG; mean of runs): > 25 µM (inactive)
- IC50 (TAG; run 1): > 25 µM
- IC50 (TAG; run 2): > 25 µM

Compound: C=CC[C@@H](CC(=O)N(CCO)Cc1ccccc1)C(=O)N[C@H](COC(=O)[C@@H](CC=C)Cc1ccc(F)cc1)Cc1c[nH]c2ccccc12
- IC50 cytotoxicity (DAPI nuclear signal decrease) (DAPI; mean of runs): > 25 µM (inactive)
- IC50 cytotoxicity (DAPI nuclear signal decrease) (DAPI; run 1): > 25 µM
- IC50 cytotoxicity (DAPI nuclear signal decrease) (DAPI; run 2): > 25 µM
- IC50 (TAG; mean of runs): 8.92 µM
- IC50 (TAG; run 1): 7.83 µM
- IC50 (TAG; run 2): 10 µM

Compound: COc1ccc(S(=O)(=O)N(C)C[C@@H]2OCCCC[C@H](C)Oc3ccc(NC(=O)Nc4ccc(C(F)(F)F)cc4)cc3C(=O)N([C@H](C)CO)C[C@H]2C)cc1
- IC50 cytotoxicity (DAPI nuclear signal decrease) (DAPI; mean of runs): > 25 µM (inactive)
- IC50 cytotoxicity (DAPI nuclear signal decrease) (DAPI; run 1): > 25 µM
- IC50 cytotoxicity (DAPI nuclear signal decrease) (DAPI; run 2): > 25 µM
- IC50 (TAG; mean of runs): > 25 µM (inactive)
- IC50 (TAG; run 1): > 25 µM
- IC50 (TAG; run 2): > 25 µM

Compound: C#CCN(C[C@H]1[C@H](OC(=O)NCC2CCCCC2)[C@H](OC(=O)NCC2CCCCC2)C[C@@H](C(=O)OC)[C@H]1C(=O)OC)S(=O)(=O)c1ccc(C)cc1
- IC50 cytotoxicity (DAPI nuclear signal decrease) (DAPI; run 1): > 25 µM
- IC50 cytotoxicity (DAPI nuclear signal decrease) (DAPI; run 2): > 25 µM
- IC50 (TAG; mean of runs): 4.93 µM
- IC50 (TAG; run 1): 4.53 µM
- IC50 (TAG; run 2): 5.33 µM

Compound: CCOc1cc(CNc2ccc3c(c2)OCCO3)cc(Br)c1OCC
- IC50 cytotoxicity (DAPI nuclear signal decrease) (DAPI; mean of runs): > 25 µM (inactive)
- IC50 cytotoxicity (DAPI nuclear signal decrease) (DAPI; run 1): > 25 µM
- IC50 cytotoxicity (DAPI nuclear signal decrease) (DAPI; run 2): > 25 µM
- IC50 (TAG; mean of runs): > 25 µM (inactive)
- IC50 (TAG; run 1): > 25 µM
- IC50 (TAG; run 2): > 25 µM

Compound: COc1ccc(/C=C2/CCCc3ccccc3C2=O)cc1
- IC50 cytotoxicity (DAPI nuclear signal decrease) (DAPI; mean of runs): > 25 µM (inactive)
- IC50 cytotoxicity (DAPI nuclear signal decrease) (DAPI; run 1): > 25 µM
- IC50 cytotoxicity (DAPI nuclear signal decrease) (DAPI; run 2): > 25 µM
- IC50 (TAG; mean of runs): > 25 µM (inactive)
- IC50 (TAG; run 1): > 25 µM
- IC50 (TAG; run 2): > 25 µM
